Reference: patent publication US20240269139A1, “COMPOUNDS FOR TARGETED PROTEIN DEGRADATION OF KINASES” (DANA-FARBER CANCER INSTITUTE, INC., priority 2020, published 2024)
Where two headings read alike, the source gives them in different places.

Experiments:
[1] = target: T1, extended human kinome (kinase-like proteins) (Homo sapiens, UniProt P54886); test: Whole cell quantitative proteomics: extended kinome hits; details: Accession P54886
T1 sequence (P54886 1-795): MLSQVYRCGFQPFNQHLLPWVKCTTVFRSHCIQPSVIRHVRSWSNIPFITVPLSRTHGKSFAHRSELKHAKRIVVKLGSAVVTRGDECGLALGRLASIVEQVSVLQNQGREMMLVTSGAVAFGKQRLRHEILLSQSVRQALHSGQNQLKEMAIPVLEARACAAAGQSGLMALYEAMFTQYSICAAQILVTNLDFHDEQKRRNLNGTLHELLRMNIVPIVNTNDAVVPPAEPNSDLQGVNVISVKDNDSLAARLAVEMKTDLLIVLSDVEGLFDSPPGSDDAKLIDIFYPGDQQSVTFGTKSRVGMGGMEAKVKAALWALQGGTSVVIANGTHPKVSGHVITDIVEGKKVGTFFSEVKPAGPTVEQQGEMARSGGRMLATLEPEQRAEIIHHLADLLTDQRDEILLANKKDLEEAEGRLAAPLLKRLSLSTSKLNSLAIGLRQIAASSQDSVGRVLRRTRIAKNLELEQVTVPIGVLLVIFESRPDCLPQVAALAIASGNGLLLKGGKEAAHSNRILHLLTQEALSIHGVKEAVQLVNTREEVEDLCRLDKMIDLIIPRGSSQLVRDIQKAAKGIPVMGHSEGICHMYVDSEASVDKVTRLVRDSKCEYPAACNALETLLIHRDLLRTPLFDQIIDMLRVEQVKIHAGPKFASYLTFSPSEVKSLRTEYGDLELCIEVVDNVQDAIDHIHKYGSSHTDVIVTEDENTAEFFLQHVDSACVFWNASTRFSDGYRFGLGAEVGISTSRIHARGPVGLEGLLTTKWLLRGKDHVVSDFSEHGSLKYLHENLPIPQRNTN
Experimental: Whole cell multiplexed quantitative proteomics was employed to measure changes in abundance of the proteome in response to treatment with each of the kinase degrader molecules relative to DMSO (Table 1, Appendix I).
Cells were treated with DMSO (biological triplicate) or degrader at indicated dose and time and cells were harvested by centrifugation. […] Precipitated protein was resuspended in 4 M Urea, 50 mM HEPES pH 7.4, followed by dilution to 1 M urea with the addition of 200 mM EPPS, pH 8. Proteins were first digested with LysC (1:50: enzyme:protein) for 12 hours at room temperature. The LysC digestion was diluted to 0.5 M Urea with 200 mM EPPS pH 8 followed by digestion with trypsin (1:50; enzyme:protein) for 6 hours at 37° C. Tandem mass tag (TMT) reagents (Thermo Fisher Scientific) were dissolved in anhydrous acetonitrile (ACN) according to manufacturer's instructions. […] The 10, 11, or 16-plex labeling reactions were performed for 1.5 hours at room temperature and the reaction quenched by the addition of hydroxylamine to a final concentration of 0.3% for 15 minutes at room temperature. The sample channels were combined at a 1:1 ratio, desalted using C18 solid phase extraction cartridges (Waters®) and analyzed by LC-MS for channel ratio comparison. Samples were then combined using the adjusted volumes determined in the channel ratio analysis and dried down in a speed vacuum. The combined sample was then resuspended in 1% formic acid, and acidified (pH 2-3) before being subjected to desalting with C18 SPE (Sep-Pak®, Waters®). Samples were then offline fractionated into 96 fractions by high pH reverse-phase HPLC (Agilent® LC1260) through an aeris peptide xb-c18 column (Phenomenex®) with mobile phase A containing 5% acetonitrile and 10 mM NH4HCO3 in LC-MS grade H2O, and mobile phase B containing 90% acetonitrile and 10 mM NH4HCO3 in LC-MS grade H2O (both pH 8.0). The 96 resulting fractions were then pooled in a non-continuous manner into 24 fractions and desalted using C18 solid phase extraction plates (SOLA®, Thermo Fisher Scientific) followed by subsequent mass spectrometry analysis.
Data were collected using an Orbitrap Fusion™ Lumos™ mass spectrometer (Thermo Fisher Scientific, San Jose, CA, USA) coupled with a Proxeon EASY-nLC™ 1200 LC pump (Thermo Fisher Scientific) or an Orbitrap Eclipse™ Tribrid™ mass spectrometer (Thermo Fisher Scientific, San Jose, CA, USA) coupled with an UltiMate™ 3000 RSLCnano System. Peptides were separated on an EasySpray™ ES803a/ES803a.rev2 75 μm inner diameter microcapillary column (ThermoFisher Scientific).
Data dependent MS2 spectra were acquired in the ion trap with a normalized collision energy (NCE) set at 35%, AGC target set to 1.8×10^4 and a maximum injection time of 120 ms. MS3 scans were acquired in the Orbitrap with HCD collision energy set to 55%. AGC target set to 2×10^5, maximum injection time of 150 ms, resolution at 50,000 and with a maximum synchronous precursor selection (SPS) precursors set to 10.
Proteome Discoverer™ 2.1, 2.2 or 2.4 (Thermo Fisher Scientific) was used for .RAW file processing and controlling peptide and protein level false discovery rates, assembling proteins from peptides, and protein quantification from peptides.

[2] = target: T2, protein kinases (human kinome) (Homo sapiens, UniProt Q9NYY8); type: cell-based; details: direction down
T2 sequence (Q9NYY8 1-710): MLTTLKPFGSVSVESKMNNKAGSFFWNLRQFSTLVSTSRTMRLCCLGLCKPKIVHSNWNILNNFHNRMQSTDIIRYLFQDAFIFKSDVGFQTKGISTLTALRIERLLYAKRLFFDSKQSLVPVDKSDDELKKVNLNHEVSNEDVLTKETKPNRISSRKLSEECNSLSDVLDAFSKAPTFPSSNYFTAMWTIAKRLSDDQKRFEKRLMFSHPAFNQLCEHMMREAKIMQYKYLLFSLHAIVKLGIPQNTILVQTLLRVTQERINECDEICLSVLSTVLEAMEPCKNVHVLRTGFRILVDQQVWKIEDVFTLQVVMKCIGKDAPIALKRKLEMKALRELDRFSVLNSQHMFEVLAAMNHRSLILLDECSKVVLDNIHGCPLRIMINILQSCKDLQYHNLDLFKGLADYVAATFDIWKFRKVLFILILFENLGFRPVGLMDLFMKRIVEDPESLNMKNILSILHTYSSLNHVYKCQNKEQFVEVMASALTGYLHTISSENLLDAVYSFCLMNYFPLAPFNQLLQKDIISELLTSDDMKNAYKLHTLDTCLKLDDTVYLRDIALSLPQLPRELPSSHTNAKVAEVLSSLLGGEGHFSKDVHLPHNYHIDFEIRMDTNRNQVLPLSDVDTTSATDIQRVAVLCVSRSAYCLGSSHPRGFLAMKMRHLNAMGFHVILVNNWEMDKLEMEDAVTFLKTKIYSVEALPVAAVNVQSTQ

[3] = target: protein kinases (human kinome) (Homo sapiens, UniProt P24941); type: cell-based
[4] = target: protein kinases (human kinome) (Homo sapiens, UniProt Q16539); type: cell-based; details: for logFC: MAPK14 (Q16539); for logFC MAPK14: MAPK14, accession Q16539, direction of change down
protein kinases (human kinome) (Homo sapiens, UniProt Q16539), sequence (Q16539 whole entry): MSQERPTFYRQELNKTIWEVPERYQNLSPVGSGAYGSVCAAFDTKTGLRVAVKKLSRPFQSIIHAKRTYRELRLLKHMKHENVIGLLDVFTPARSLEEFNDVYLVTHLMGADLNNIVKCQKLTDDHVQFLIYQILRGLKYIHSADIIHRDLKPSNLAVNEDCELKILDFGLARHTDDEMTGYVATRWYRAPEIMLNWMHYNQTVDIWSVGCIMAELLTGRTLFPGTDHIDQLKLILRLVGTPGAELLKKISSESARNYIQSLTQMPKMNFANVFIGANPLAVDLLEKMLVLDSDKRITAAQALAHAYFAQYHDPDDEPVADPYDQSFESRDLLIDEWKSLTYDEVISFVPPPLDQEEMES

[5] = target: protein kinases (human kinome) (Homo sapiens, UniProt Q9H0K1); type: cell-based; details: for logFC of SIK2: Accession Q9H0K1; for logFC SIK2 (Q9H0K1): direction of change down
protein kinases (human kinome) (Homo sapiens, UniProt Q9H0K1), sequence (Q9H0K1 whole entry): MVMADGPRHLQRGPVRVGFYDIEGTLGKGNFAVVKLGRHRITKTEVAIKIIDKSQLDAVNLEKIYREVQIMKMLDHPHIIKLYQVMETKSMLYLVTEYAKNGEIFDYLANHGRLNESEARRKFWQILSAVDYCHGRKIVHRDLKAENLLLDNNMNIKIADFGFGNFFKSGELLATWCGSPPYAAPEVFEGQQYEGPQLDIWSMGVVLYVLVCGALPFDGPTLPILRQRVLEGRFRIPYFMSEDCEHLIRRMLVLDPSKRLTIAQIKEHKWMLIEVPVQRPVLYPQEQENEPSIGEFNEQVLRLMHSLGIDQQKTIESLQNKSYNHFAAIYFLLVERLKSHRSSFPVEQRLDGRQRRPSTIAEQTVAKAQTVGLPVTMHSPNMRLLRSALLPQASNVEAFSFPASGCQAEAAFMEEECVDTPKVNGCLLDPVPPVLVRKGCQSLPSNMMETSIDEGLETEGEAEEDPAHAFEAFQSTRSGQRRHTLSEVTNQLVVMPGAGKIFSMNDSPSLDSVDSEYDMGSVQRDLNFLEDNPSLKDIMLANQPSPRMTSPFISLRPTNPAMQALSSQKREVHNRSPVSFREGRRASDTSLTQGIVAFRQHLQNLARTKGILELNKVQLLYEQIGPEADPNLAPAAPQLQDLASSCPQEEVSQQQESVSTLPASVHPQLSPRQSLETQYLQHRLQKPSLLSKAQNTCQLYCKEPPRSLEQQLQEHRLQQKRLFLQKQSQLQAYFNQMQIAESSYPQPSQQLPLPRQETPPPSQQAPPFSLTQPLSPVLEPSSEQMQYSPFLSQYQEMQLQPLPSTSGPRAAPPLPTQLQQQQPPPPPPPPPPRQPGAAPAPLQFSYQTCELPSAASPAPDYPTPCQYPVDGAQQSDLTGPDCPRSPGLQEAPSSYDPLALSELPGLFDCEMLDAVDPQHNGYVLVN

[6] = experiment wp137, direction of change down
[7] = experiment wp016, direction of change down

CN(C)C(=O)c1cc2cnc(Nc3ccc(N4CCN(CCCCNC(=O)COc5cccc6c5C(=O)N(C5CCC(=O)NC5=O)C6=O)CC4)cn3)nc2n1C1CCCC1 (stereo not drawn) [BSJ.04.132]
logFC ALDH18A1 ([1]; experiment wp084): −0.6568
logFC FASTKD2 (Q9NYY8) ([2]; Experiment wp084): −0.5107

C[C@@H]1C[C@@H](O)c2ncnc(N3CCN(C(=O)[C@H](CNCCCCCCCCCCc4cccc5c4C(=O)N(C4CCC(=O)NC4=O)C5=O)c4ccc(Cl)cc4)CC3)c21 (stereo partly drawn) [INY.03.041.01]
logFC ALDH18A1 ([1]; experiment wp118): −0.376
logFC FASTKD2 (Q9NYY8) ([2]; Experiment wp118): −0.4539

CC(C)(C)c1nc(-c2cccc(NS(=O)(=O)c3c(F)cccc3F)c2F)c(-c2ccnc(NCCOCCNC(=O)CCOCCOCCNc3cccc4c3C(=O)N(C3CCC(=O)NC3=O)C4=O)n2)s1 (stereo not drawn) [DD.03.106]
logFC ALDH18A1 ([1]; experiment wp147, 1 uM): −0.3463
logFC ALDH18A1 ([1]; experiment wp147, 4 uM): −0.8823
logFC FASTKD2 (Q9NYY8) ([2]; Experiment wp147, 2 uM): −0.3392
logFC FASTKD2 (Q9NYY8) ([2]; Experiment wp147, 4 uM): −0.9073
logFC CDK2 (P24941-1) ([3]; Experiment wp147, 2 uM): −0.4932
logFC CDK2 (P24941-1) ([3]; Experiment wp147, 4 uM): −0.5248
logFC CDK2 (P24941-1) ([3]; experiment wp137): −0.3437
logFC CDK2 (P24941-1) [3, 6]: −0.3437
logFC CDK2 (P24941-1) ([3]; experiment wp147, 1 uM): −0.3285
logFC CDK2 (P24941-1) ([3]; experiment wp147, 1 uM, direction of change down): −0.3285
logFC CDK2 (P24941-1) ([3]; experiment wp147, 2 uM, direction of change down): −0.4932
logFC CDK2 (P24941-1) ([3]; experiment wp147, 4 uM, direction of change down): −0.5248

Cc1ccc(C(=O)Nc2ccc(CN3CCN(CCCOCCOCCOCCNC(=O)COc4cccc5c4C(=O)N(C4CCC(=O)NC4=O)C5=O)CC3)c(C(F)(F)F)c2)cc1C#Cc1cnc2cccnn12 (stereo not drawn) [SB1.G.187]
logFC ALDH18A1 ([1]; experiment wp056): −0.4458
logFC FASTKD2 (Q9NYY8) ([2]; Experiment wp056): −0.3881
logFC of MAPK14 ([4]; Accession Q16539, experiment wp172): −0.5198
logFC ([4]; experiment wp103): −0.83
logFC ([4]; experiment wp107): −0.924
logFC ([4]; experiment wp172): −0.5198
logFC MAPK14 ([4]; experiment wp103): −0.83
logFC MAPK14 ([4]; experiment wp107): −0.924

CNC(=O)c1ccccc1Nc1cc(Nc2ccc(N3CCN(CCOCCOCCNC(=O)CNc4cccc5c4C(=O)N(C4CCC(=O)NC4=O)C5=O)CC3)cc2OC)ncc1C(F)(F)F (stereo not drawn) [MFH.5.103.1]
logFC ALDH18A1 ([1]; experiment wp076): −0.4191

CC(=O)c1c(C)c2cnc(Nc3ccc(N4CCN(CCOCCOCCOCCNC(=O)COc5cccc6c5C(=O)N(C5CCC(=O)NC5=O)C6=O)CC4)cn3)nc2n(C2CCCC2)c1=O (stereo not drawn) [BSJ.03.123]
logFC ALDH18A1 ([1]; experiment wp084): −0.5282
logFC FASTKD2 (Q9NYY8) ([2]; Experiment wp084): −0.51

C=CCn1c(=O)c2cnc(Nc3ccc(N4CCN(CCCNc5cccc6c5C(=O)N(C5CCC(=O)NC5=O)C6=O)CC4)cc3)nc2n1-c1cccc(C(C)(C)O)n1 (stereo not drawn) [ZNL.02.096]
logFC ALDH18A1 ([1]; experiment wp118): −0.4405
logFC FASTKD2 (Q9NYY8) ([2]; Experiment wp118): −0.4605

CC(C)(C)c1nc(-c2cccc(NS(=O)(=O)c3c(F)cccc3F)c2F)c(-c2ccnc(NCCOCCNC(=O)CCOCCOCCNc3cccc4c3CN(C3CCC(=O)NC3=O)C4=O)n2)s1 (stereo not drawn) [DD.03.107]
logFC ALDH18A1 ([1]; experiment wp147, 1 uM): −0.6536
logFC ALDH18A1 ([1]; experiment wp147, 2 uM): −0.7374
logFC ALDH18A1 ([1]; experiment wp147, 4 uM): −1.326
logFC FASTKD2 (Q9NYY8) ([2]; Experiment wp147, 1 uM): −0.7236
logFC FASTKD2 (Q9NYY8) ([2]; Experiment wp147, 2 uM): −0.6784
logFC FASTKD2 (Q9NYY8) ([2]; Experiment wp147, 4 uM): −1.273

CC(C)S(=O)(=O)c1ccccc1Nc1nc(Nc2ccc(N3CCN(CCOCCNC(=O)CNc4cccc5c4C(=O)N(C4CCC(=O)NC4=O)C5=O)CC3)cc2)ncc1Cl (stereo not drawn) [SK.3.91]
logFC ALDH18A1 ([1]; experiment wp160, 1 hr): −0.9684
logFC FASTKD2 (Q9NYY8) ([2]; Experiment wp016, 1 uM): −0.4507
logFC CDK2 (P24941-1) ([3]; Experiment wp103): −0.4588
logFC CDK2 (P24941-1) ([3]; Experiment wp105, direction of change down): −0.4593
logFC CDK2 (P24941-1) ([3]; Experiment wp107): −0.7583
logFC CDK2 (P24941-1) ([3]; Experiment wp160, 2 hr): −0.383
logFC CDK2 (P24941-1) ([3]; Experiment wp172): −0.8996
logFC CDK2 (P24941-1) ([3]; experiment wp016): −0.5115
logFC CDK2 (P24941-1) ([3]; experiment wp016, 1 uM): −1.047
logFC CDK2 (P24941-1) ([3]; experiment wp016, 1 uM, direction of change down): −1.047
logFC CDK2 (P24941-1) [3, 7]: −0.5115
logFC CDK2 (P24941-1) ([3]; experiment wp103, direction of change down): −0.4588
logFC CDK2 (P24941-1) ([3]; experiment wp105): −0.4593
logFC CDK2 (P24941-1) ([3]; experiment wp107, direction of change down): −0.7583
logFC CDK2 (P24941-1) ([3]; experiment wp133, 2 hr): −0.4306
logFC CDK2 (P24941-1) ([3]; experiment wp133, 2 hr, direction of change down): −0.4306
logFC CDK2 (P24941-1) ([3]; experiment wp133, 4 hr): −0.6908
logFC CDK2 (P24941-1) ([3]; experiment wp133, 4 hr, direction of change down): −0.6908
logFC CDK2 (P24941-1) ([3]; experiment wp160, 2 hr, direction of change down): −0.383
logFC CDK2 (P24941-1) ([3]; experiment wp160, 4 hr): −0.647
logFC CDK2 (P24941-1) ([3]; experiment wp160, 4 hr, direction of change down): −0.647
logFC CDK2 (P24941-1) ([3]; experiment wp172, direction of change down): −0.8996
logFC of SIK2 ([5]; experiment wp105): −0.5386
logFC of SIK2 ([5]; experiment wp107): −1.568
logFC of SIK2 ([5]; experiment wp114): −0.5757
logFC of SIK2 ([5]; experiment wp133, 2 hr): −0.4938
logFC of SIK2 ([5]; experiment wp133, 4 hr): −1.035
logFC of SIK2 ([5]; experiment wp160, 2 hr): −0.5413
logFC of SIK2 ([5]; experiment wp160, 4 hr): −0.8364
logFC SIK2 (Q9H0K1) ([5]; Experiment wp105): −0.5386
logFC SIK2 (Q9H0K1) ([5]; Experiment wp114): −0.5757
logFC SIK2 (Q9H0K1) ([5]; experiment wp107): −1.568
logFC SIK2 (Q9H0K1) ([5]; experiment wp133, 2 hr): −0.4938
logFC SIK2 (Q9H0K1) ([5]; experiment wp133, 4 hr): −1.035
logFC SIK2 (Q9H0K1) ([5]; experiment wp160, 2 hr): −0.5413
logFC SIK2 (Q9H0K1) ([5]; experiment wp160, 4 hr): −0.8364

O=C(COc1cccc2c1C(=O)N(C1CCC(=O)NC1=O)C2=O)NCCCCCCCC(=O)NC1(c2ccc(-c3nc4ccn5c(=O)[nH]nc5c4cc3-c3ccccc3)cc2)CCC1 (stereo not drawn) [INY.01.140.1]
logFC ALDH18A1 ([1]; experiment wp081): −0.4491
logFC FASTKD2 (Q9NYY8) ([2]; Experiment wp081): −0.4053

Cc1cnc(Nc2ccc(N3CCN(CCOCCOCCNC(=O)COc4cccc5c4C(=O)N(C4CCC(=O)NC4=O)C5=O)CC3)cc2)nc1Nc1cccc(S(=O)(=O)NC(C)(C)C)c1 (stereo not drawn) [JWG.118]
logFC ALDH18A1 ([1]; experiment wp071): −0.4227
logFC FASTKD2 (Q9NYY8) ([2]; Experiment wp071): −0.4341

CC(C)S(=O)(=O)c1ccccc1Nc1nc(Nc2ccc(N3CCN(CCOCCOCCNC(=O)CNc4cccc5c4C(=O)N(C4CCC(=O)NC4=O)C5=O)CC3)cc2)ncc1Cl (stereo not drawn) [TL12.186]
logFC FASTKD2 (Q9NYY8) ([2]; Experiment wp137): −0.3625
logFC CDK2 (P24941-1) ([3]; experiment wp016): −0.5971
logFC CDK2 (P24941-1) [3, 7]: −0.5971
logFC CDK2 (P24941-1) ([3]; experiment wp131): −0.98
logFC CDK2 (P24941-1) ([3]; experiment wp131, direction of change down): −0.98
logFC CDK2 (P24941-1) ([3]; experiment wp137): −0.9162
logFC CDK2 (P24941-1) [3, 6]: −0.9162
logFC of SIK2 ([5]; experiment wp131): −1.317
logFC SIK2 (Q9H0K1) ([5]; experiment wp131): −1.317
